ChEMBL document CHEMBL1136839, “3,4-Disubstituted isothiazoles: novel potent inhibitors of VEGF receptors 1 and 2” (Bioorg Med Chem Lett, 2009)

What was measured:
[1] = biological target: Epidermal growth factor receptor (Homo sapiens) (UniProt P00533); test: Inhibition of EGFR at 10 uM by HTRF assay
[2] = biological target: T1, Vascular endothelial growth factor receptor 2 (Homo sapiens, UniProt P35968); test: Inhibition of VEGFR2 expressed in HEK293 cells assessed as inhibition of receptor phosphorylation by ELISA; format: cell-based
[3] = biological target: Cyclin-dependent kinase 2 (Homo sapiens) (UniProt P24941); test: Inhibition of CDK2 at 10 uM by HTRF assay
[4] = biological target: Vascular endothelial growth factor receptor 1 (Homo sapiens, UniProt P17948); test: Inhibition of VEGFR1 assessed as blockade of pGAT-biotin phosphorylation in presence of 2 uM ATP by HTRF assay
[5] = biological target: Hepatocyte growth factor receptor (Homo sapiens) (UniProt P08581); test: Inhibition of cMET at 10 uM by HTRF assay
[6] = biological target: Insulin-like growth factor 1 receptor (Homo sapiens) (UniProt P08069); test: Inhibition of IGF1R at 10 uM by HTRF assay
[7] = biological target: Insulin receptor (Homo sapiens) (UniProt P06213); test: Inhibition of InR at 10 uM by HTRF assay
[8] = biological target: Cyclin-dependent kinase 1 (Homo sapiens) (UniProt P06493); test: Inhibition of CDK1 at 10 uM by HTRF assay
Chain of Cyclin-dependent kinase 1 (Homo sapiens) (P06493 whole entry, looked up): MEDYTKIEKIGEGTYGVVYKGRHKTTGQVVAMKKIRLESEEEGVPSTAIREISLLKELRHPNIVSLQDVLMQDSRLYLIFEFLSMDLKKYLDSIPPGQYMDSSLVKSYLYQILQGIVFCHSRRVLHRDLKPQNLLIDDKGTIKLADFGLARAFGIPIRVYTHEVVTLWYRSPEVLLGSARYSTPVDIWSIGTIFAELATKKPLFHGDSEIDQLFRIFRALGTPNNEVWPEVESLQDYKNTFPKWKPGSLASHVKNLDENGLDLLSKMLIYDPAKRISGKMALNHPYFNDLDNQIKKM

[9] = biological target: T2, Aurora kinase A (Homo sapiens) (UniProt O14965); test: Inhibition of Aurora A at 10 uM by HTRF assay
T2 sequence (whole entry): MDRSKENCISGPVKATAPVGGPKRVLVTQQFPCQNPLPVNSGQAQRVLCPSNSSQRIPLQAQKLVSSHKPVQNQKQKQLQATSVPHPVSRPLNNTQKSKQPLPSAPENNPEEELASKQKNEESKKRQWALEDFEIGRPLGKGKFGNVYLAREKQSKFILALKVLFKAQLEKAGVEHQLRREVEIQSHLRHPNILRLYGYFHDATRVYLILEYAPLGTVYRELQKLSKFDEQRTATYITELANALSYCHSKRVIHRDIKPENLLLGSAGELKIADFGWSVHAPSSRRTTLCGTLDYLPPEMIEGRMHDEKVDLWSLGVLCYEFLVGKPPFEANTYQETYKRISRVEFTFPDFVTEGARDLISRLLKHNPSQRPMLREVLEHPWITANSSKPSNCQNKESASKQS

[10] = biological target: Glycogen synthase kinase-3 beta (Homo sapiens) (UniProt P49841); test: Inhibition of GSK3-beta at 10 uM by HTRF assay
[11] = biological target: Proto-oncogene tyrosine-protein kinase Src (Homo sapiens) (UniProt P12931); test: Inhibition of Src at 10 uM by HTRF assay
Chain of Proto-oncogene tyrosine-protein kinase Src (Homo sapiens) (P12931 2-536 limits assumed): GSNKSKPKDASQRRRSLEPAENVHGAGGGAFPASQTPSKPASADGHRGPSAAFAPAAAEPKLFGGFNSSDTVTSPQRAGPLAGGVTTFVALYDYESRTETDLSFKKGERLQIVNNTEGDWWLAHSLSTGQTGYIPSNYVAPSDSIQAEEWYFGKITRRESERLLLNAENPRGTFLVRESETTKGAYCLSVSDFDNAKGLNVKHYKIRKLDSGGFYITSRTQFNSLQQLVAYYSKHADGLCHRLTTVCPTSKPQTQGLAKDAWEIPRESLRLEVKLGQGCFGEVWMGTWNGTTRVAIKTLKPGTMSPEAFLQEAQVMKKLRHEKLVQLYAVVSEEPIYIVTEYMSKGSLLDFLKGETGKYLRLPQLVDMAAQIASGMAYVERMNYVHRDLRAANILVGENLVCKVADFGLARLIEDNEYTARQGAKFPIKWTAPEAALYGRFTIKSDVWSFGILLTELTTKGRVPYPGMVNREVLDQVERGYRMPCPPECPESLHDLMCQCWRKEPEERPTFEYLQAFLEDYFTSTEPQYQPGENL

[12] = Intrinsic permeability across human Caco-2 cells
[13] = biological target: Fibroblast growth factor receptor 1 (Homo sapiens) (UniProt P11362); test: Inhibition of FGFR1 at 10 uM by HTRF assay
Chain of Fibroblast growth factor receptor 1 (Homo sapiens) (P11362 22-822 limits assumed): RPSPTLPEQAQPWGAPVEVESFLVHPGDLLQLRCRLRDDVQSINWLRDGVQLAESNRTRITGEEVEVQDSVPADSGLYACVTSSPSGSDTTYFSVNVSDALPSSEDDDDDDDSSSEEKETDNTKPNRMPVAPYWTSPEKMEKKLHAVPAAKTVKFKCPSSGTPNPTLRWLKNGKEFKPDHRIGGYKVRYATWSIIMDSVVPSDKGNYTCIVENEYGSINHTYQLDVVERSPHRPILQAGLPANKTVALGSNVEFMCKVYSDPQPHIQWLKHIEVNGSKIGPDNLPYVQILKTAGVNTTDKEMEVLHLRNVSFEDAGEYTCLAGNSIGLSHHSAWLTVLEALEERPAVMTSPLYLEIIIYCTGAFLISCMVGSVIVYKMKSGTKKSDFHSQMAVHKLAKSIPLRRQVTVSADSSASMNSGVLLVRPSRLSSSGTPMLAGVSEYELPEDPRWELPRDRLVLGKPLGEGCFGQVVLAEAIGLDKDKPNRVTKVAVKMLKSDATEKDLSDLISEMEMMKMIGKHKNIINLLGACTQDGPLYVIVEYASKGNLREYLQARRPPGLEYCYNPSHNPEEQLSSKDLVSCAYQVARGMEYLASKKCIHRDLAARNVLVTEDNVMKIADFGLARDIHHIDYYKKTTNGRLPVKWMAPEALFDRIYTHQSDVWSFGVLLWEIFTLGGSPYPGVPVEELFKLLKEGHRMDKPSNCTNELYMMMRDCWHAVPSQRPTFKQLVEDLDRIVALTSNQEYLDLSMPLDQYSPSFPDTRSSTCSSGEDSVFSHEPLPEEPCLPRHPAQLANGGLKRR

[14] = biological target: Bcr/Abl fusion protein (Homo sapiens) (UniProt P00519+P11274); test: Inhibition of bcr-Abl at 10 uM by HTRF assay; format: protein assay
Chain of Bcr/Abl fusion protein (Homo sapiens) (P00519 whole entry, looked up, the tested form may be a part): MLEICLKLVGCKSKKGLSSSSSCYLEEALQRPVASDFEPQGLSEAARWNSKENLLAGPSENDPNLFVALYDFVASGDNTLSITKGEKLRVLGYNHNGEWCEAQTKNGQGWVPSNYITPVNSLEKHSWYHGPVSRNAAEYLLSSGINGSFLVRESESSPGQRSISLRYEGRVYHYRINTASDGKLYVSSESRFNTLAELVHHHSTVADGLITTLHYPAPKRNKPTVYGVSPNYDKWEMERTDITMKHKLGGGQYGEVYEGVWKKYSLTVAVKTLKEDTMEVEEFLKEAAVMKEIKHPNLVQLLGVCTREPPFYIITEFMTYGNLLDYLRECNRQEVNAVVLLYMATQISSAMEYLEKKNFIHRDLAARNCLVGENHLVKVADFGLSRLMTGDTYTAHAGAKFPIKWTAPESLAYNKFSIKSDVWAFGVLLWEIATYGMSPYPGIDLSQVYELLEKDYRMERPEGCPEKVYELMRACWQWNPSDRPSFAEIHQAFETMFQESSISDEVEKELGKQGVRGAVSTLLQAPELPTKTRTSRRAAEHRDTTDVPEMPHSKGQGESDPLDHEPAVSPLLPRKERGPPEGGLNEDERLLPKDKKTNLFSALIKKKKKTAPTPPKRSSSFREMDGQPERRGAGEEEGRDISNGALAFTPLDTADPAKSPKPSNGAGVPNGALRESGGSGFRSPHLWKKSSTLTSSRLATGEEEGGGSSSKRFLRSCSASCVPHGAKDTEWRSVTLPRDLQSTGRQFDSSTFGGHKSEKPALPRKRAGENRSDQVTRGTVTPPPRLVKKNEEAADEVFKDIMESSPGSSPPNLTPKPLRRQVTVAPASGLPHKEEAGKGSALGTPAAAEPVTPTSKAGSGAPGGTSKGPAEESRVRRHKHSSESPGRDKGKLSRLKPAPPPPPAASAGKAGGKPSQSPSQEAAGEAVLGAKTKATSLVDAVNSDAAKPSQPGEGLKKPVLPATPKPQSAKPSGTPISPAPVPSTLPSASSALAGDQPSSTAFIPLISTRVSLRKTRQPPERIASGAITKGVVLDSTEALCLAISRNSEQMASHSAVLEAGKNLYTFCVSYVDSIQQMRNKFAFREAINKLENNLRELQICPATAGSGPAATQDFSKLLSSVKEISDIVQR
Chain of Bcr/Abl fusion protein (Homo sapiens) (P11274 whole entry, looked up, the tested form may be a part): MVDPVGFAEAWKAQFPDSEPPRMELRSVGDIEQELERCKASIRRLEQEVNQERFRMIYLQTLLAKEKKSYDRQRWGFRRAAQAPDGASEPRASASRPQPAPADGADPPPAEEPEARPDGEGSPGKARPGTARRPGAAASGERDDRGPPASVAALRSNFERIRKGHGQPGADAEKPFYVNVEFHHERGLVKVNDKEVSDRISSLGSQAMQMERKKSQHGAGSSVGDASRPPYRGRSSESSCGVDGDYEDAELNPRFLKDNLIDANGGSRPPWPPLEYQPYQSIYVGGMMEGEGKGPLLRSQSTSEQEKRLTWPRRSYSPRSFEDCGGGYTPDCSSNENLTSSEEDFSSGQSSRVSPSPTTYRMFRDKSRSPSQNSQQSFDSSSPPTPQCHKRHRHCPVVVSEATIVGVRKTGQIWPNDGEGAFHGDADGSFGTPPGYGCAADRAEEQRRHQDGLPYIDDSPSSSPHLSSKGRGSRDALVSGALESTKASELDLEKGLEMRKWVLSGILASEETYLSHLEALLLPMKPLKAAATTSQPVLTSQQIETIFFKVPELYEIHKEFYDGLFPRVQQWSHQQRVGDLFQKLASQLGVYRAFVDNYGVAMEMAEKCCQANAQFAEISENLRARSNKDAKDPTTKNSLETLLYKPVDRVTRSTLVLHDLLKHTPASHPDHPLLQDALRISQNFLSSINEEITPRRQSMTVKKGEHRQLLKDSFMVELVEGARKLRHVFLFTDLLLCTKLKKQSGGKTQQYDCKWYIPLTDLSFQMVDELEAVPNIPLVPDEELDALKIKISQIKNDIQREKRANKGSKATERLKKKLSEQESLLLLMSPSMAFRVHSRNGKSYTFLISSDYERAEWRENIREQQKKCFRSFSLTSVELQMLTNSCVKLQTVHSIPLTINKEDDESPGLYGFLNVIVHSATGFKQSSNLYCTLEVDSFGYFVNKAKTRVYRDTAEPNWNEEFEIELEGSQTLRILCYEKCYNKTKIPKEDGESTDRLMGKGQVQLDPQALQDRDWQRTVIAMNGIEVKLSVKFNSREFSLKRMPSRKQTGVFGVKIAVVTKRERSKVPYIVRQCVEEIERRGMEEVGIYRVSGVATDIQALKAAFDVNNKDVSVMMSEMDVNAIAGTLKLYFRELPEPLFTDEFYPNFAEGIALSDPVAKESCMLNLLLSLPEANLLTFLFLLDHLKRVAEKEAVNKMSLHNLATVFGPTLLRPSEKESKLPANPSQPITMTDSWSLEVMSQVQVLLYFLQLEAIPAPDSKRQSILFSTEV

[15] = Inhibition of Bcr-Abl T315 mutant at 10 uM by HTRF assay
[16] = biological target: T1, Vascular endothelial growth factor receptor 2; test: Inhibition of VEGFR2 assessed as blockade of pGAT-biotin phosphorylation in presence of 2 uM ATP by HTRF assay
[17] = biological target: Receptor-type tyrosine-protein kinase FLT3 (Homo sapiens) (UniProt P36888); test: Inhibition of Flt3 at 10 uM by HTRF assay
[18] = Inhibition of PKA at 10 uM by HTRF assay
[19] = biological target: Macrophage-stimulating protein receptor (Homo sapiens) (UniProt Q04912); test: Inhibition of Ron at 10 uM by HTRF assay
[20] = biological target: Receptor tyrosine-protein kinase erbB-2 (Homo sapiens) (UniProt P04626); test: Inhibition of ErbB2 at 10 uM by HTRF assay
[21] = biological target: Serine/threonine-protein kinase PLK1 (Homo sapiens) (UniProt P53350); test: Inhibition of Plk1 at 10 uM by HTRF assay
Chain of Serine/threonine-protein kinase PLK1 (Homo sapiens) (P53350 whole entry): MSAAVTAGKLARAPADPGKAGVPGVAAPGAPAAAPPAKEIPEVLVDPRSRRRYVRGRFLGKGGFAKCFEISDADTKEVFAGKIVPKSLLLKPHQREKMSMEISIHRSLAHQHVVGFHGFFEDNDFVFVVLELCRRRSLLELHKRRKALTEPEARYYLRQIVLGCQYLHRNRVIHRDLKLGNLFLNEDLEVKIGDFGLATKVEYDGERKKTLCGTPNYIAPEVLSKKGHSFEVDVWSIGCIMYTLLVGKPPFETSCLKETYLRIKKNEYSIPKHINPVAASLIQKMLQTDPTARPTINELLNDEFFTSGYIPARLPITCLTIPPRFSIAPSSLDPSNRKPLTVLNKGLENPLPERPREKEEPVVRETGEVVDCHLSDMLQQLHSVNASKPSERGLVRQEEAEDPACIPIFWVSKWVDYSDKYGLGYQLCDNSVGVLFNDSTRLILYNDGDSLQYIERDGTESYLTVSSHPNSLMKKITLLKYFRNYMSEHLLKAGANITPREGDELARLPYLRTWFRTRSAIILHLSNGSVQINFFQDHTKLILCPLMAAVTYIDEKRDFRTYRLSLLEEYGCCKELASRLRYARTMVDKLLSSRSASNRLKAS

[22] = biological target: Aurora kinase B (Homo sapiens) (UniProt Q96GD4); test: Inhibition of Aurora B at 10 uM by HTRF assay
Chain of Aurora kinase B (Homo sapiens) (Q96GD4 whole entry): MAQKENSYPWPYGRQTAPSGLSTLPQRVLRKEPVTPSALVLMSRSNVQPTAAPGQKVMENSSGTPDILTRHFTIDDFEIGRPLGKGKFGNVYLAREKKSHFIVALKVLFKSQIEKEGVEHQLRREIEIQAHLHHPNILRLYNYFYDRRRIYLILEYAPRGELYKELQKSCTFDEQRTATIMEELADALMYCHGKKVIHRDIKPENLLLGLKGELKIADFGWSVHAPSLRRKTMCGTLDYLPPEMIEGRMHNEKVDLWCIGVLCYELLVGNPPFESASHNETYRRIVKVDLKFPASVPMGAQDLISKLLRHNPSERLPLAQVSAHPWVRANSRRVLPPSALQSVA

[23] = biological target: T1, Vascular endothelial growth factor receptor 2; test: Inhibition of VEGFR2 at IC50 concentration by ATP based competition assay
[24] = biological target: T1, Vascular endothelial growth factor receptor 2; test: Inhibition of VEGFR2 at IC90 concentration by ATP based competition assay

Structure (SMILES)	inhibition [1] [%]	IC50 [2] [µM]	inhibition [3] [%]	IC50 [4] [µM]	inhibition [5] [%]	inhibition [6] [%]	inhibition [7] [%]	inhibition [8] [%]	inhibition [9] [%]	inhibition [10] [%]	inhibition [11] [%]	Papp [12] [nm/s]	inhibition [13] [%]	inhibition [14] [%]	inhibition [15] [%]	IC50 [16] [µM]	inhibition [17] [%]	inhibition [18] [%]	inhibition [19] [%]	inhibition [20] [%]	also measured
Cc1ccc(NC(=O)c2nscc2NCc2ccncc2)cc1C(F)(F)F	< 30	0.056	< 30	0.19	< 30	< 30	< 30	< 30	< 30	< 30	< 30	59	< 30	< 30	< 30	0.043	< 30	< 30	< 30	< 30	inhibition [21]: < 30%; inhibition [22]: < 30%
O=C(Nc1ccc(Br)cc1)c1nscc1NCc1ccncc1	< 30	1.04	< 30	0.26	< 30	< 30	< 30	< 30	< 30	< 30	< 30		< 30	< 30	< 30	0.23	< 30	< 30	< 30	< 30	Ki [23]: 0.09 µM; Ki [24]: 0.07 µM; inhibition [21]: < 30%; inhibition [22]: < 30%
O=C(Nc1cccc(Br)c1)c1nscc1NCc1ccnc2ccccc12	< 30		< 30		< 30	< 30	< 30	< 30		< 30	< 30	35.8	< 30	< 30	< 30		< 30	< 30	< 30	< 30	

Now from value to compound, other results behind:

inhibition [1] [%]	IC50 [2] [µM]	inhibition [3] [%]	IC50 [4] [µM]	inhibition [5] [%]	inhibition [6] [%]	inhibition [7] [%]	inhibition [8] [%]	inhibition [9] [%]	inhibition [10] [%]	inhibition [11] [%]	Papp [12] [nm/s]	inhibition [13] [%]	inhibition [14] [%]	inhibition [15] [%]	IC50 [16] [µM]	inhibition [17] [%]	inhibition [18] [%]	inhibition [19] [%]	inhibition [20] [%]	Structure (SMILES)	also measured
< 30	0.054	< 30	0.17	< 30	< 30	< 30	< 30	< 30	< 30	< 30	69.8	< 30	< 30	< 30	0.041	< 30	< 30	< 30	< 30	O=C(Nc1cccc(C(F)(F)F)c1)c1nscc1NCc1ccncc1	Ki [23]: 0.16 µM; Ki [24]: 0.13 µM; inhibition [21]: < 30%; inhibition [22]: < 30%
< 30	0.041	< 30	0.26	< 30	< 30	< 30	< 30	< 30	< 30	< 30	79.3	< 30	< 30	< 30	0.033	< 30	< 30	< 30	< 30	O=C(Nc1cccc(OC(F)(F)F)c1)c1nscc1NCc1ccncc1	inhibition [21]: < 30%; inhibition [22]: < 30%
